Experiments:
[1] = cited from earlier work
[2] = cited from earlier work; remark: listed apart in the source
[3] = tested on: radiation enteritis; details: related 5-ASA drugs; cited from earlier work
[4] = tested on: radiation enteritis; experiment: Clinical trial of balsalazide to treat radiation enteritis; format: in vivo, human; details: patients on pelvic radiotherapy
Description: Subjects included patients treated for FIGO stage IB2-IVA cervical cancer, AJCC Stage T1-3 MO prostate cancer, or biochemical failure after prostatectomy. Radiotherapy was delivered to the subjects in a 4-field technique to at least 40 Gy, and tumor dose was at least 64 Gy for prostate patients, and 75 Gy for cervical patients. Brachytherapy boost was permitted. Patients were given 2250 mg of BSZ or an Identical-appearing placebo twice daily beginning 5 days prior to radiotherapy, and continuing for 2 weeks after completion. Toxicities were graded weekly according to NCI Common Toxicity Criteria, for each of the following: proctitis, diarrhea, dysuria, weight loss, fatigue, nausea, and vomiting. A symptom index was formulated for each toxicity consisting of the toxicity's numeric grade multiplied by the number of days it was experienced, and summed for each grade. Thus, a patient with 7 days of grade 1 proctitis, 14 days of grade 2 proctitis, and 7 days of grade 3 proctitis [(1*7)+(2*14)+(3*7)] would have a proctitis index of 56. A higher Index indicates worse toxicity. Patients were randomized by sealed envelope decision, with only the protocol coordinator aware of the results of randomization. After randomization, the study drug or identical-appearing placebo was given to the study subject with instructions concerning dosage and administration schedule. As stated above, the toxicity was assessed weekly during the course of radiation treatment, then for a period of at least six months after completion of radiotherapy. National Cancer Institute (NCI) common toxicity criteria were used to grade the severity of radiation-induced acute bowel toxicity. Diarrhea was used as the primary endpoint and was assessed as follows: Grade 0—no diarrhea or increased stool frequency Grade 1—increase of 2-3 stools/day Grade 2—increase of 4-6 stools/day or nocturnal stool Grade 3—increase of 7-9 stools/day or incontinence Grade 4—increase of >10 stools/day or grossly bloody diarrhea Documented baseline hemorrhoidal bleeding was not considered grade 4. A secondary endpoint included proctitis, which was assessed using guidelines outlined by the NCI Common Toxicity Criteria, including: Grade 0—None Grade 1—Increased stool frequency, occasional blood-streaked stools or rectal discomfort, not requiring medication Grade 2—increased stool frequency, bleeding, mucous discharge or rectal discomfort requiring medication Grade 3—increased stool frequency/diarrhea requiring parenteral support, rectal bleeding requiring transfusion, or persistent mucus discharge necessitating the use of pads Grade 4—perforation, bleeding or necrosis, or other life-threatening complications requiring surgical intervention

[5] = 2250 mg twice daily, versus placebo

## O=C(O)CCNC(=O)c1ccc(/N=N/c2ccc(O)c(C(=O)O)c2)cc1 [balsalazide disodium]
[1]; versus 0% in those receiving placebo
  abdominal pain (only statistically significant side effect), patients receiving the drug: 11%
[2]
  water solubility: highly water-soluble

## Nc1ccc(O)c(C(=O)O)c1 [mesalamine, 5-aminosalicylic acid]
[3]
  outcome in clinical trials for radiation enteritis: failure

## O=C(O)CCNC(=O)c1ccc(/N=N/c2ccc(O)c(C(=O)O)c2)cc1 [balsalazide]
[4]; 2250 mg twice daily from 5 days prior to radiotherapy until 2 weeks after, vs. 77 in placebo (p=0.04), higher index = worse
  proctitis mean index (symptom index: toxicity grade x days, summed): 35
[4]; 2250 mg twice daily, 1 on placebo
  nausea/vomiting seen: 2 patients
[4]; 2250 mg twice daily, 2 placebo patients did
  patients experiencing grade 4 diarrhea: No patient
[4]; 2250 mg twice daily, placebo averaged 49
  fatigue index: 20
[4]; 2250 mg twice daily, placebo lost greater than 3 pounds
  average weight change: gained weight
[4]; [5]
  all toxicities except nausea/vomiting: appreciably lower
  dysuria: appreciably lower
[1]; versus placebo
  adverse events reported in trials (headache, nausea, diarrhea, flatulence, fatigue): comparable to those seen in patients receiving placebo

## O=C(O)c1cc(/N=N/c2ccc(O)c(C(=O)O)c2)ccc1O [osalazine]
[3]
  outcome in clinical trials for radiation enteritis: failure
